The record followed here is patent publication US8969312B2, “Low side effect pharmaceutical composition containing antituberculosis drugs” (priority 2011, dated 2015).

For the test, the system named is amidase. Put plainly: Mouse liver microsomal amidase, isoniazid to isonicotinic acid. The class given is biochemical. The source says: Mouse liver microsomes were used as the source of amidase, and isoniazid was used as the amidase metabolism drugs. quantitative isoniazid was catalyzed into metabolites isonicotinic acid (INA) by amidase, and was used as the index for measurement of the amidase activity for establishment of the platform for screening in vitro amidase activity inhibitors. The HPLC system includes a Shimadzu the LC-LOAD pump, 1 Shimadzu system control and a Shimadzu autosampler (Shimadzu Scientific Instrument, Japan). A C18 column (particle size 5 μm, inner diameter of 50×4.6 mm, 25 cm) containing 70% methanol and 30% ammonium formate (50 mM, pH=2.5) of the mobile phase for HPLC separation, and the experimental steps are outlined as follows:
(2) An aliquot of 150 μL mouse liver microsomal solution was added to 100 μL isoniazid solution in 35 μL 67 mM potassium phosphate buffer solution ([…], pH=7) with a final concentration at 3 mM, and then mixed thoroughly with 15 μL amidase inhibitor (deionized water was added in the control group). (3) Incubation at 37° C. water bath for 30 minutes. (4) An aliquot of 300 μL acetonitrile (ACN) was added and mixed thoroughly, and incubated for 6 minutes. (5) An aliquot of 30 μL perchloric acid was then mixed and incubated for 6 minutes. (6) The mixture was centrifuged at 13000 g for 6 minutes. (7) After centrifugation, 100 μL of the supernatant was injected into HPLC. (8) Methanol ammonium formate (50 mM, pH=2.5)=70:30 (V/V) was selected as the mobile phase, and the flow rate was controlled at […] and detected at 270 nm UV. […] The amidase inhibition % was then calculated using the following formula: […]
On the technique in general: Liver microsomes are vesicles of endoplasmic reticulum, rich in cytochrome P450 enzymes.

On to `O=[N+]([O-])c1ccc(OP(=O)(O)Oc2ccc([N+](=O)[O-])cc2)cc1` [BNPP, bis-p-nitrophenyl phosphate, reference compound], for which the Amidase inhibition (positive control, own concentration not given) is reported as 92.1 ± 8.7%.
Take `COc1cc(-c2cc(=O)c3c(O)cc(O)cc3o2)ccc1O` [Chrysoeriol]: the Amidase inhibition is 7.7 ± 7.1% (1 uM), 24.9 ± 11.2% (10 uM) and 23.2 ± 1.2% (100 uM).
In the case of `CC12CCC(CC1)C(C)(C)O2` [Cineole], the Amidase inhibition is given as −16.5 ± 17.5% (1 uM), −4.7 ± 4.9% (10 uM) and 22.9 ± 10.4% (100 uM).
Turning to `COc1cc(/C=C/C(=O)CC(=O)/C=C/c2ccc(O)c(OC)c2)ccc1O` [Curcumin], the Amidase inhibition is recorded as 16.9 ± 11.0% (1 uM), 16.1 ± 0.4% (10 uM) and 9.7 ± 6.0% (100 uM).
Consider `O=c1c(-c2ccc(O)cc2)coc2cc(O[C@@H]3O[C@H](CO)[C@@H](O)[C@H](O)[C@H]3O)ccc12` [Daidzin], for which the Amidase inhibition runs as follows: (1 uM) 3.6 ± 3.0%; (10 uM) 1.1 ± 5.4%; (100 uM) 7.4 ± 6.3%.
Consider `CC(C)[C@@H](C)/C=C/[C@@H](C)[C@H]1CC[C@H]2C3=CC=C4C[C@@H](O)CC[C@]4(C)[C@H]3CC[C@]12C` [Ergosterol], for which the Amidase inhibition is reported as 4.3 ± 10.7% (1 uM), −0.4 ± 10.7% (10 uM) and 0.4 ± 3.6% (100 uM).
With `C[C@@H]1O[C@@H](OC[C@H]2O[C@@H](Oc3cc(O)c4c(c3)O[C@H](c3ccc(O)c(O)c3)CC4=O)[C@H](O)[C@@H](O)[C@@H]2O)[C@H](O)[C@H](O)[C@H]1O` [Eriocitrin], the Amidase inhibition reads like this: (1 uM) −16.1 ± 12.8%; (10 uM) 19.0 ± 3.0%; (100 uM) 32.8 ± 1.9%.
With `O=C1C[C@@H](c2ccc(O)c(O)c2)Oc2cc(O)cc(O)c21` [Eriodictyol], the Amidase inhibition is reported as 9.0 ± 4.7% (1 uM), 6.5 ± 11.3% (10 uM) and 22.3 ± 4.7% (100 uM).
On the same counts, the results for `COc1ccc(-c2cc(=O)c3c(O)c(OC)c(OC)cc3o2)cc1O` [Eupatorin] are 0.9 ± 2.8%, 7.5 ± 0.7% and 12.0 ± 7.4%.
For `O=c1c(O)c(-c2ccc(O)c(O)c2)oc2cc(O)ccc12` [Fisetin], the Amidase inhibition was −9.2 ± 2.5% (1 uM), 38.3 ± 2.0% (10 uM) and 56.4 ± 2.9% (100 uM).
In the case of `O=c1c(O)c(-c2ccccc2)oc2cc(O)cc(O)c12` [Galangin], the Amidase inhibition (1 uM) was found to be 9.6 ± 9.9%, the Amidase inhibition (10 uM) stood at 32.8 ± 4.4% and the Amidase inhibition (100 uM) was 61.5 ± 2.7%.
For the molecule `CC1(C)[C@@H](O[C@H]2O[C@H](C(=O)O)[C@@H](O)[C@H](O)[C@H]2O[C@@H]2O[C@H](C(=O)O)[C@@H](O)[C@H](O)[C@H]2O)CC[C@]2(C)[C@H]3C(=O)C=C4[C@@H]5C[C@@](C)(C(=O)O)CC[C@]5(C)CC[C@@]4(C)[C@]3(C)CC[C@@H]12` [Glycyrrhizin], the Amidase inhibition by setting is: (1 uM) −1.3 ± 3.1%; (10 uM) 4.3 ± 11.3%; (100 uM) 24.4 ± 12.7%.
Turning to `O=c1cc(-c2ccc(O)c(O)c2)oc2cc(O)c([C@@H]3O[C@H](CO)[C@@H](O)[C@H](O)[C@H]3O)c(O)c12` [Homoorientin], the Amidase inhibition runs as follows: (1 uM) 7.4 ± 3.8%; (10 uM) 3.5 ± 0.9%; (100 uM) 18.0 ± 2.6%.
On the same counts, the results for `O=C(/C=C/c1ccc(O)cc1)c1ccc(O)cc1O` [Isoliquritigenin] are −18.7 ± 26.0%, 17.7 ± 8.3% and 57.2 ± 8.5%.
For `CCCCCCCCCCCCO` [Lauryl Alcohol], the Amidase inhibition (1 uM) came out at 2.2 ± 3.1%, the Amidase inhibition (10 uM) is −0.7 ± 1.5% and the Amidase inhibition (100 uM) is listed as 4.1 ± 4.3%.
